Patent US20060211697A1, “2-(2 Or 4-substituted aryloxy)-phenol derivatives as antibacterial agents” (priority 2004, published 2006)
Converted amounts (≈) assume the structure as drawn.

Experiments:
H. influenzae 43095 = assay: MIC, broth dilution method, H. influenzae; type: cell-based; conditions: Haemophilus influenzae, 43095; Gram-negative bacteria; in vitro, broth dilution; read-out: MIC H. influenzae 43095
Method: (§1) Minimum Inhibition Concentration (MIC), Broth Dilution Method:
(§2) The compounds of the present invention were tested against an assortment of Gram positive and Gram negative organisms using standard microtitration techniques well known to those skilled in the art. Cultures of bacteria are initially brought up from the freezer by streaking a loopful onto agar plates under the appropriate conditions. For instance bacterial stocks are streaked onto chocolate agar and then incubated for 18 hours at 35-37° C. in a 5% CO2 incubator. Five to ten colonies are picked from the chocolate agar plate for subculture to Brain-Heart infusion (BHI) broth, Mueller Hinton broth, or BHI containing 4% serum and incubated under the appropriate conditions. The ability of the test compound to act as an antimicrobial is determined by the ability to inhibit bacterial growth in vitro. The optical density of the culture of organisms in the presence of an active compound is compared to the optical density of the same organism untreated. The activity of the compounds is described as either negative or the lowest concentration inhibiting growth (Minimum Inhibitory Concentration [MIC]).

E. coli 43888 = assay: MIC, broth dilution method, E. coli; type: cell-based; conditions: Escherichia coli, 43888; Gram-negative bacteria; in vitro, broth dilution; read-out: MIC E. coli 43888
Method: as §1, §2

S. pneumoniae 11733 = assay: MIC, broth dilution method, S. pneumoniae; type: cell-based; conditions: Streptococcus pneumoniae, 11733; Gram-positive bacteria; in vitro, broth dilution; read-out: MIC S. pneumoniae 11733
Method: as §1, §2

S. aureus 29213 = assay: MIC, broth dilution method, S. aureus; type: cell-based; conditions: Staphylococcus aureus, 29213; Gram-positive bacteria; in vitro, broth dilution; read-out: MIC S. aureus 29213
Method: as §1, §2

Cc1ccc(Oc2ccc(C3NC(C(=O)O)CCS3)cc2)c(O)c1 (centres unmarked) [Example 8, 2-[4-(2-Hydroxy-4-methyl-phenoxy)-phenyl]-[1, 3]thiazinane-4-carboxylic acid]
melting point: 140 to 145 °C (dec.)
MIC (H. influenzae 43095): 0.5 µg/mL (≈ 1.45 µM)
MIC (E. coli 43888): 4 µg/mL (≈ 11.6 µM)
MIC (S. pneumoniae 11733): 4 µg/mL (≈ 11.6 µM)
MIC (S. aureus 29213): 0.5 µg/mL (≈ 1.45 µM)

Cc1ccc(Oc2ccccc2-c2nnn[nH]2)c(O)c1 [Example 14, 5-Methyl-2-[2-(1H-tetrazol-5-yl)-phenoxy]-phenol and 5-methyl-2-[2-(2H-tetrazol-5-yl)-phenoxy]-phenol]
melting point: 205 to 207 °C
MIC (H. influenzae 43095): 0.125 µg/mL (≈ 0.466 µM)
MIC (E. coli 43888): 0.125 µg/mL (≈ 0.466 µM)
MIC (S. pneumoniae 11733): 2 µg/mL (≈ 7.46 µM)
MIC (S. aureus 29213): 0.002 µg/mL (≈ 0.00746 µM)

Cc1ccc(Oc2ccc(-c3nnc(N)s3)cc2)c(O)c1 [Example 23, 2-[4-(5-Amino-[1,3,4]thiadiazol-2-yl)-phenoxy]-5-methyl-phenol]
melting point: 240 to 243 °C (dec.)
MIC (H. influenzae 43095): > 25 µg/mL
MIC (E. coli 43888): 25 µg/mL (≈ 83.5 µM)
MIC (S. pneumoniae 11733): 12.5 µg/mL (≈ 41.8 µM)
MIC (S. aureus 29213): 1.6 µg/mL (≈ 5.34 µM)

Cc1ccc(Oc2ccc(-c3cccs3)cc2O)c(O)c1 [Example 3, 2-(2-Hydroxy-4-methyl-phenoxy)-5-(thiophen-2-yl)-phenol]
melting point: 91 to 92 °C
MIC (H. influenzae 43095): 4 µg/mL (≈ 13.4 µM)
MIC (E. coli 43888): 15.7 µg/mL (≈ 52.6 µM)
MIC (S. pneumoniae 11733): 1 µg/mL (≈ 3.35 µM)
MIC (S. aureus 29213): 4 µg/mL (≈ 13.4 µM)

Cc1ccc(Oc2ccc(C3NC(C(=O)O)CCS3)cc2C#N)c(O)c1 (centres unmarked) [Example 10, 2-[3-Cyano-4-(2-hydroxy-4-methyl-phenoxy)-phenyl]-[1,3]thiazinane-4-carboxylic acid]
melting point: 147 to 150 °C (dec.)
MIC (H. influenzae 43095): 2 µg/mL (≈ 5.4 µM)
MIC (E. coli 43888): 4 µg/mL (≈ 10.8 µM)
MIC (S. pneumoniae 11733): 2 µg/mL (≈ 5.4 µM)
MIC (S. aureus 29213): 2 µg/mL (≈ 5.4 µM)

Cc1ccc(Oc2ccc(C3NC(C(=O)O)CS3)cc2C#N)c(O)c1 (centres unmarked) [Example 9, 2-[3-Cyano-4-(2-hydroxy-4-methyl-phenoxy)-phenyl]-thiazolidine-4-carboxylic acid]
melting point: 150 to 152 °C
MIC (H. influenzae 43095): 4 µg/mL (≈ 11.2 µM)
MIC (E. coli 43888): 4 µg/mL (≈ 11.2 µM)
MIC (S. pneumoniae 11733): 4 µg/mL (≈ 11.2 µM)
MIC (S. aureus 29213): 2 µg/mL (≈ 5.61 µM)

Cc1ccc(Oc2ccc(C3NC(C(=O)O)CS3)cc2)c(O)c1 (centres unmarked) [Example 7, 2-[4-(2-Hydroxy-4-methyl-phenoxy)-phenyl]-thiazolidine-4-carboxylic acid]
melting point: 172 to 174 °C (dec.)
MIC (H. influenzae 43095): 1 µg/mL (≈ 3.02 µM)
MIC (E. coli 43888): 4 µg/mL (≈ 12.1 µM)
MIC (S. pneumoniae 11733): 1 µg/mL (≈ 3.02 µM)
MIC (S. aureus 29213): 0.25 µg/mL (≈ 0.754 µM)
